Converted amounts (≈) assume the structure as drawn. “And” between values parts separate entries of the source, which are not always exact repeats. Equal entries are not always repeated. Where two headings read alike, the source gives them in different places.
Key:
St. faecalis = assay: In vitro antibacterial activity (Steers' agar dilution MIC); type: cell-based; details: Enterococcus faecalis
[1] = system: S. aureus penicillinase+); assay: In vitro activity (geometric mean MIC, serial dilution); type: cell-based; details: Staphylococcus aureus, read-out: Geometric Mean MIC
Sal. enteritidis = assay: In vitro antibacterial activity (Steers' agar dilution MIC); type: cell-based; details: Salmonella enterica
Enterobacter (sensitive) = assay: In vitro activity (geometric mean MIC, serial dilution); type: cell-based; details: read-out: Geometric Mean MIC
rabbits = assay: Preliminary nephrotoxicity study; type: in vivo; details: two rabbits, 100 mg./kg. intravenously
Experimental: A preliminary nephrotoxicity study was carried out by administration of the test compound to a group of two rabbits at 100 mg./kg. intravenously.

E. coli Juhl = assay: In vivo activity (Mice, sc); details: several determinations listed
Text: |In vivo Activity of BB-[…] and Related Compounds (Mice, sc) | (PD50 (mgm./kg.)

Proteus (indole +) = assay: In vitro activity (geometric mean MIC, serial dilution); type: cell-based; details: read-out: Geometric Mean MIC
S. pyogenes = assay: as above; type: cell-based; details: Streptococcus pyogenes; 10 strains; Mueller-Hinton agar, inoculum 10^4 dilution; MIC cutoff 200 mcg./ml.
Ps. aeruginosa = assay: In vitro antibacterial activity (Steers' agar dilution MIC); type: cell-based
[2] = system: Proteus (indole +, cephalosporinase +); assay: In vitro activity (geometric mean MIC, serial dilution); type: cell-based; details: 5 strains; Mueller-Hinton agar, inoculum 10^4 dilution; MIC cutoff 200 mcg./ml.; read-out: Geometric Mean MIC
[3] = system: Enterobacter (Cephalosporinase +); assay: as above; type: cell-based; details: 7 strains, Mueller-Hinton agar, inoculum 10^4 dilution, MIC cutoff 200 mcg./ml.
[4] = table 4 (BB-S 525), St. faecalis, read-out: MIC
[5] = table 2 (BB-S493), Sal. enteritidis A9531
[6] = table 4 (BB-S 525), Sal. enteritidis
[7] = Pseudomonas aeruginosa, table 2 (BB-S493), Ps. aeruginosa A9843, read-out: MIC
[8] = table 2 (BB-S493), Ps. aerugionsa A9930
[9] = table 4 (BB-S 525), Ps. aeruginosa, 1st line
[10] = table 4 (BB-S 525), Ps. aeruginosa, 2nd line

SMILES | MIC (St. faecalis; table 2 (BB-S493), St. faecalis A9536, read-out: MIC) [µg/mL] | MIC (St. faecalis; [4]) [µg/mL] | MIC [1] [µg/mL] | MIC (Sal. enteritidis; [5]) [µg/mL] | MIC (Sal. enteritidis; [6]) [µg/mL] | MIC (Enterobacter (sensitive)) [µg/mL] | nephrotoxic potential (rabbits) | ED50 (E. coli Juhl; Escherichia coli, read-out: PD50) [mg/kg] | PD50 (E. coli Juhl) | MIC (Proteus (indole +); 14 strains, Mueller-Hinton agar, inoculum 10^4 dilution, MIC cutoff 200 mcg./ml.) [µg/mL] | MIC (S. pyogenes) [µg/mL] | MIC (Ps. aeruginosa; [7]) [µg/mL] | MIC (Ps. aeruginosa; [8]) [µg/mL] | MIC (Ps. aeruginosa; [9]) [µg/mL] | MIC (Ps. aeruginosa; [10]) [µg/mL] | MIC [2] [µg/mL] | MIC [3] [µg/mL] | MIC (St. faecalis) [µg/mL] | MIC (Enterobacter (sensitive); 3 strains, Mueller-Hinton agar, inoculum 10^4 dilution, MIC cutoff 200 mcg./ml.) [µg/mL] | MIC (Proteus (indole +)) [µg/mL]
CNCc1ccccc1CC(=O)N[C@@H]1C(=O)N2C(C(=O)O)=C(CSc3ccc4nn(CC(=O)O)c(=O)n4n3)CS[C@H]12 [BB-S479, 7-[o-(Methylaminomethyl)phenylacetamido]-3-(2-carboxymethyl-2,3-dihydro-s-triazolo[4,3-b]pyridazin-3-on-6-ylthiomethyl)-3-cephem-4-carboxylic Acid] | 100 (≈ 167 µM) | > 100 | 0.9 (≈ 1.5 µM) | 0.05 (≈ 0.0834 µM) | 0.1 (≈ 0.167 µM) | 0.5 (≈ 0.834 µM) | little nephrotoxic potential | 0.19 | 0.15 mgm./kg. and 0.12 mgm./kg. | 0.2 (≈ 0.334 µM) | 0.04 (≈ 0.0667 µM) | > 100 | > 100 | > 100 | > 100 | 4.8 (≈ 8 µM) | 2.1 (≈ 3.5 µM) | – | – | –
Cn1nnnc1SCC1=C(C(=O)O)N2C(=O)[C@@H](NC(=O)[C@H](O)c3ccccc3)[C@H]2SC1 [Cefamandole, reference compound] | – | 100 (≈ 216 µM) | 0.4 (≈ 0.865 µM) | 0.1 (≈ 0.216 µM) | 0.1 (≈ 0.216 µM) | – | – | – | – | – | 0.04 (≈ 0.0865 µM) | > 100 | > 100 | > 100 | > 100 | 3.6 (≈ 7.78 µM) | 4.7 (≈ 10.2 µM) | 50 (≈ 108 µM) | 1 (≈ 2.16 µM) | 0.5 (≈ 1.08 µM)
